Peptide text beside a SMILES is read from it.
Legend:
[1] = biological target: T1, PfSR10 (Plasmodium falciparum, UniProt Q8I5P8); test: FlAsH-BRET assay of PfSR10 extracellular conformational changes; format: cell-based; conditions: for ECL3 movement relative to the PfSR10 N-terminus, S6 sensor: S6 (site 6) sensor site; for ECL1 movement relative to the PfSR10 N-terminus: concentration-dependent
Method: To characterize the binding properties of different ligands (CQ, DHA, PIP-TT, PQ, bradykinin or des-Arg9-bradykinin) to PfSR10, a FlAsH BRET assay was performed as previously described.[29]^,[32]^,[49] We seeded HEK293 cells or COS-7 cells in 6-well plate were transfected with PfSR10 FlAsH BRET sensors (S1 to S6 as indicated in Figure 4B) and incubated for 48 h at 37°C in 5% CO2. The overexpressed PfSR10 sensors cells were washed with FlAsH BRET buffer (25 mM HEPES, 1 mM CaCl2, 140 mM NaCl, 2.7 mM KCl, 0.9 mM MgCl2, 0.37 mM NaH2PO4, 5.5 mM D-glucose, 12 mM NaHCO3) and incubated with 2.5 μM FlLAsH EDT2 (pre-diluted in FLAsH BRET buffer) for 40min at 37°C in 5% CO2. The cells were washed twice, resuspended with FlAsH BRET buffer, and seeded into a 96-well plate at a density of 5x10^4 per well. After adding increasing concentrations of ligand (CQ, DHA, PIP-TT, PQ, bradykinin or des-Arg9-bradykinin) together with luciferase substrate coelenterazine-h (5 μM), the BRET signals between Nluc (440-480 nm) and FlAsH fluorescent moiety (525-585 nm) emissions were examined by a Mithras LB 940 Multimode Microplate Reader.

[2] = biological target: T1, PfSR10; test: Gi1-Gγ dissociation BRET assay in PfSR10-overexpressing HEK293 cells; format: cell-based; conditions: for Gi1 coupling with PfSR10 (in words): G protein dissociation assay
Text: (§1) To characterize the G protein signalling properties of PfSR10, G protein BRET probes were generated according to previous publication.[50] The Gqo BRET probes were generated by replacing the six amino acids of the C- terminus of Gq -RlucII with those from GoA1, creating a chimeric Gqo-RlucII subunit.[51] HEK293 cells or COS-7 cells were co-transfected with PfSR10 and various G protein probes (Gi, Gq and Gqo). Forty-eight hours post-transfection, cells were washed twice with HBSS, resuspended with HBSS buffer, and seeded into a 96-well plate at a density of 5x10^4 per well. After adding increasing concentrations of ligand (CQ, DHA, PIP-TT, PQ, Bradykinin, des-Arg9-bradykinin, bradykinin-Arg-FITC, FITC-bradykinin) together with luciferase substrate coelenterazine 400a (5 μM, Cayman), the BRET signals between […] (440-480 nm) and GFP2 (510 nm) emissions were examined by a Mithras LB 940 Multimode Microplate Reader (Berthold Technologies). The BRET signal was calculated as the ratio of the GFP2 emission to Nluc emission.

[3] = biological target: T1, PfSR10; test: GloSensor-cAMP assay, inhibition of forskolin-induced cAMP in PfSR10-overexpressing HEK293 cells; format: cell-based; conditions: for Fsk-induced cAMP level elevation (in words): PfSR10-overexpressing HEK293 cells, concentration-dependent
Method: (§2) To examine the constitutive activity of PfSR10, we transfected HEK293 cells with different concentrations of the receptor, including PfSR10, ADGRG2, ADGRG3. For measuring the anti-malarial drugs, bradykinin or des-Arg9-bradykinin-induced inhibition of forskolin-stimulated cAMP level in HEK293 cells or COS-7 cells, the receptor encoding plasmid (PfSR10 or its mutants) or empty plasmid (pcDNA3.1) was co-transfected with the GloSensor plasmid and incubated in an incubator at 37°C with 5% CO2 for 24 h. The transfected cells were then inoculated on 96-well plates (at a density of 4 × 10^4 / well) and incubated in incubators under the same conditions for another 24 hours. Cells were precultured with serum-free medium (Gibco) containing 5% DILUTED GloSensor™cAMP reagent Reserve solution (Progema) for 2 h. The base cAMP signal was directly measured using a multimode tablet reader (PerkinElmer Envision). At the same time, the cAMP signal induced by DHA, PIP-TT, PQ, CQ bradykinin or des-Arg9-bradykinin was detected after adding agonists into the corresponding Wells. Finally, the s-shaped dose response function in GraphPad Prism 7.0 was used to analyze the data.

[4] = biological target: T2, PySR10 (Plasmodium yoelii, UniProt V7PQD6); test: GloSensor-cAMP assay in HEK293 cells overexpressing PySR10; format: cell-based
T2 sequence (V7PQD6 entry or part of it): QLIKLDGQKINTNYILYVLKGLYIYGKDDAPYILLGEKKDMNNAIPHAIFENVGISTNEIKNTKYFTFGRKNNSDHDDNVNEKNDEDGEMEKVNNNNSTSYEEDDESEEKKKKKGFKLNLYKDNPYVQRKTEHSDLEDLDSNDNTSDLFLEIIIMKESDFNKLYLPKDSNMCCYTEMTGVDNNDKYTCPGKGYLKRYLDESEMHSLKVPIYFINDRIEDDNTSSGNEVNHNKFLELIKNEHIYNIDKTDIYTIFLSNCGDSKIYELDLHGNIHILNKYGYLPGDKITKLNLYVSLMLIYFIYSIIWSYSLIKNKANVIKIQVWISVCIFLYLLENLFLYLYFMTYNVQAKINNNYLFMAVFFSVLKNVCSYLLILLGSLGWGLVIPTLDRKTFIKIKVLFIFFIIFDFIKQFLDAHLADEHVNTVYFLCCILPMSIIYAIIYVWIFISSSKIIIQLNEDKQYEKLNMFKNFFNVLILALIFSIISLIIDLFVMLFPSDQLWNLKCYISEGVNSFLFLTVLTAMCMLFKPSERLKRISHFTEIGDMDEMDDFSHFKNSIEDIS

[5] = test system: SR10; test: GloSensor-cAMP assay in HEK293 cells overexpressing P. vivax SR10; format: cell-based; conditions: one of the two other Plasmodium species
[6] = test system: SR10; test: GloSensor-cAMP assay in HEK293 cells overexpressing P. knowlesi SR10; format: cell-based; conditions: one of the two other Plasmodium species
[7] = biological target: T1, PfSR10; test: Gq-Gγ dissociation BRET assay in PfSR10-overexpressing HEK293 cells; format: cell-based
Text: as §1

[8] = biological target: T3, PcSR10 (Plasmodium chabaudi, UniProt A0A4V0KCI5); test: GloSensor-cAMP assay in HEK293 cells overexpressing PcSR10; format: cell-based
T3 sequence (A0A4V0KCI5 entry or part of it): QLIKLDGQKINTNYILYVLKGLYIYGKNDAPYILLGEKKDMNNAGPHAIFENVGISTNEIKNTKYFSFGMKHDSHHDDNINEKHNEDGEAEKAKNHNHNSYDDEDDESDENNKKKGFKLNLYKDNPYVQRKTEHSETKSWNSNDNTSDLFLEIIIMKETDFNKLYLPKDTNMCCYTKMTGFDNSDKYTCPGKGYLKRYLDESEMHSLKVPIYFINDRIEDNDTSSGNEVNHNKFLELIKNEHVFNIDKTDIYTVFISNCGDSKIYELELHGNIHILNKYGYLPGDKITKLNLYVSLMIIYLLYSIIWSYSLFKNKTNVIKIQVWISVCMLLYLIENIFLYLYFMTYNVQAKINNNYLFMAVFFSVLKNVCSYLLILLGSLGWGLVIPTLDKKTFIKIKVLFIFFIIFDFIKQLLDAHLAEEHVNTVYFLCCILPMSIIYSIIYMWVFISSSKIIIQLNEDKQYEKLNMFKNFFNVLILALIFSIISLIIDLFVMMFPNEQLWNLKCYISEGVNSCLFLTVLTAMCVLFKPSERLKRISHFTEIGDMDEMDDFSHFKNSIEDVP

[9] = test system: Plasmodium falciparum; test: cAMP ELISA in isolated parasites at trophozoite stage stimulated with Fsk; format: cell-based; conditions: 10 μM DHA, 3 μM Fsk, compared with untreated group
Method: For determination of the cAMP levels in the Plasmodium falciparum, P. falciparum-infected human erythrocyte s at trophozoite stage, synchronized with sorbitol as previously described.[47] The P. falciparum-infected cells were subject to the 10 μM DHA treatment or not for 1 h after synchronization in the presence of 3 μM of Fsk. P. falciparum parasites were isolated at the trophozoite stage.[48] P. falciparum parasites were washed twice with PBS and resuspended at a concentration of 5×10^6 cells/ml^-1 in the same buffer and incubated for 15 min with 10 μM DHA in the presence 300 nM IBMX to prevent cAMP degradation. After treatment, P. falciparum parasites were disrupted repeatedly by freeze-thaw, sedimented by centrifugation at 600 g for 10 min at 4°C and the supernatant was collected and subjected to cAMP measurement using cAMP ELISA Kit (R&D systems) according to manufacturer’s instructions.

[10] = biological target: T4, PbSR10 (Plasmodium berghei, UniProt A0A509AUP3); test: GloSensor-cAMP assay in HEK293 cells overexpressing PbSR10; format: cell-based
T4 sequence (A0A509AUP3 entry or part of it): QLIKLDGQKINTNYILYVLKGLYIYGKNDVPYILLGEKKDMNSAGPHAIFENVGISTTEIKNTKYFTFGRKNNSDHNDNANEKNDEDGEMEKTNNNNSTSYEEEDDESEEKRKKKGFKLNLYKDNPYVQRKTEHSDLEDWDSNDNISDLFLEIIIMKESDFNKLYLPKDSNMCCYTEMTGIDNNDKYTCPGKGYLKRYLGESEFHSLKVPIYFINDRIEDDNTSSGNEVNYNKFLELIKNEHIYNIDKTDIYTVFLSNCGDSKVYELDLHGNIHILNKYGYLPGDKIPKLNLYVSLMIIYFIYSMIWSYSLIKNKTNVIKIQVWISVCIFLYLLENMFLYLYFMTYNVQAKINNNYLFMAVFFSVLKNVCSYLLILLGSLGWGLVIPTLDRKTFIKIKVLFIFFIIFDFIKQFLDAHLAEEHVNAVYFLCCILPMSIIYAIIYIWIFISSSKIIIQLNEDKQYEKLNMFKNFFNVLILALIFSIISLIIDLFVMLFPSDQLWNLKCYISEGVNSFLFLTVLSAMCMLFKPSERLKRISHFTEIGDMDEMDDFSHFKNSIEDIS

[11] = biological target: T4, PbSR10; test: Gi protein trimer dissociation assay in HEK293 cells overexpressing PbSR10; format: cell-based
[12] = test system: Plasmodium falciparum; test: IP3 ELISA in isolated parasites at trophozoite stage; format: cell-based; conditions: 10 μM DHA, 1 h, compared with untreated group
Method: To measure the IP3 levels in the Plasmodium falciparum. P. falciparum parasites were collected as described above. In brief, after 1 h-treatment 1h with 10 μM of DHA, P. falciparum parasites were isolated at the trophozoite stage and washed twice with PBS. Then P. falciparum parasites were disrupted repeatedly by freeze-thaw, sedimented by centrifugation at 600 g for 10 min at 4°C. The supernatant was collected and IP3 levels were determined using IP3 ELISA Kit (Hengyuan Biotechnology, Shanghai) according to manufacturer’s instructions.

[13] = test system: PfSR10 mutants; test: GloSensor-cAMP assay with site-directed PfSR10 mutants; format: cell-based, Plasmodium falciparum
Method: as §2

[14] = biological target: T2, PySR10; test: Gi dissociation assay in HEK293 cells overexpressing PySR10; format: cell-based; conditions: read-out: Gi activity EC50 downstream of PySR10
[15] = biological target: T3, PcSR10; test: Gi dissociation assay in HEK293 cells overexpressing PcSR10; format: cell-based; conditions: read-out: Gi activity EC50 downstream of PcSR10
[16] = biological target: T1, PfSR10; test: cAMP inhibition in PfSR10-overexpressing COS-7 cells; format: cell-based; conditions: read-out: EC50 in COS-7 cell
Method: as §2

[17] = biological target: PcSR10 (SR10 of Plasmodium chabaudi) (Plasmodium chabaudi)
[18] = biological target: PySR10 (SR10 of Plasmodium yoelii) (Plasmodium yoelii)
[19] = HEK293 cells overexpressing PfSR10, mean ± SEM

T1 sequence (Q8I5P8 entry or part of it): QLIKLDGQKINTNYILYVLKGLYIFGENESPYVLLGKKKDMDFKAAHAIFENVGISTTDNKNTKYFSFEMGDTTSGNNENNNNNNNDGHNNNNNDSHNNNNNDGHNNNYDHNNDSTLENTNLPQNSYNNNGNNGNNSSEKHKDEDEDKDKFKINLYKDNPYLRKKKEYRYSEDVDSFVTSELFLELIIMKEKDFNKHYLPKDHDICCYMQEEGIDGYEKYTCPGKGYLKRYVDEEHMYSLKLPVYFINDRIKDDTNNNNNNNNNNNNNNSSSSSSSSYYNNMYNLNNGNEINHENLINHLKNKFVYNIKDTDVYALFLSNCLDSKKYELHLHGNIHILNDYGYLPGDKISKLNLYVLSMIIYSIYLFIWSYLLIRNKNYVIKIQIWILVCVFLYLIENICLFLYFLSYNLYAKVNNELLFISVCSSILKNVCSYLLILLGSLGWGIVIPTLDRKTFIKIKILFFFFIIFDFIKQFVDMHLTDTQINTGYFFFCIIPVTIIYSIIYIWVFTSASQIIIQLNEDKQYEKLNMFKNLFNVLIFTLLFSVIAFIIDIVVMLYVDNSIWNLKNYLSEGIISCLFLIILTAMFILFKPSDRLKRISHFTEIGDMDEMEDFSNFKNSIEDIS

O=C1C(O)=C([C@H]2CC[C@H](c3ccc(Cl)cc3)CC2)C(=O)c2ccccc21 [ATO, atovaquone]
extracellular conformational changes in PfSR10 [1]: did not induce detectable extracellular conformational changes

CCN(CC)CCCC(C)Nc1ccnc2cc(Cl)ccc12 (centres unmarked) [CQ, chloroquine]
EC50 [2]: 0.75 ± 0.06 nM
Gi1 coupling with PfSR10 (in words) [2]: promoted Gi1 coupling with PfSR10
EC50 [3]: 36.6 ± 2.97 nM
cAMP inhibition Emax [3, 19]: 0.958 ± 0.03 × 10^3
ECL3 movement relative to the PfSR10 N-terminus, S6 sensor [1]: separation of ECL3 from the PfSR10 N-terminus
ECL1 movement relative to the PfSR10 N-terminus [1]: inward movement of ECL1 toward the PfSR10 N-terminus

C[C@H]1[C@@H](O)O[C@@H]2O[C@@]3(C)CC[C@H]4[C@H](C)CC[C@@H]1[C@@]24OO3 [DHA, dihydroartemisinin]
EC50 [4]: 36.6 ± 6.78 nM
cAMP response via SR10 of P. vivax [5]: no response
cAMP response via SR10 of P. knowlesi [6]: no response
EC50 [7]: 2 ± 0.1 nM
EC50 [8]: 37.6 ± 15.5 nM
Fsk-stimulated cAMP in the malaria parasite [9]: inhibited
EC50 [10]: 12.3 ± 4.75 nM
Gi dissociation downstream of PbSR10 [11]: promoted Gi dissociation
EC50 [3]: 3.94 ± 1.6 nM
cAMP inhibition Emax [3, 19]: 1.136 ± 0.06 × 10^3
IP3 concentration in the malaria parasite [12]: significantly increased
effect of mutation on DHA potency, PfSR10 C454F ([13]; mutant C454F vs wild type): minimal effects
effect of mutation on DHA-induced cAMP inhibition, PfSR10 L587M ([13]; mutant L587M vs wild type): significantly impaired
effect of mutation on DHA-induced cAMP inhibition, PfSR10 N595S ([13]; mutant N595S vs wild type): significantly impaired
effect of mutation on DHA-induced cAMP inhibition, PfSR10 T513A ([13]; mutant T513A vs wild type): significantly impaired
effect of mutation on DHA potency, PfSR10 T528S ([13]; mutant T528S vs wild type): minimal effects
ECL1 movement relative to the PfSR10 N-terminus [1]: inward movement of ECL1 toward the PfSR10 N-terminus

Clc1ccc2c(N3CCN(CCCN4CCN(c5ccnc6cc(Cl)ccc56)CC4)CC3)ccnc2c1.O=P(O)(O)O [PIP-TT, piperaquine-tetraphosphate-tetrahydrate]
Gi1 coupling with PfSR10 (in words) [2]: promoted Gi1 coupling with PfSR10
Gi1-dissociation Emax [2, 19]: -13.00 ± 1.00 × 10^-3
EC50 ([2]; HEK293 cells overexpressing PfSR10, mean ± SEM, read-out: Gi1-dissociation EC50): 9.18 ± 5.23 nM
cAMP inhibition Emax [3, 19]: 1.070 ± 0.09 × 10^3
EC50 ([3]; inhibition of Fsk-induced cAMP elevation, HEK293 cells overexpressing PfSR10, mean ± SEM, n=3, read-out: cAMP inhibition EC50): 0.4 ± 0.12 nM
ECL3 movement relative to the PfSR10 N-terminus, S6 sensor [1]: separation of ECL3 from the PfSR10 N-terminus
ECL1 movement relative to the PfSR10 N-terminus [1]: inward movement of ECL1 toward the PfSR10 N-terminus

COc1cc(NC(C)CCCN)c2ncccc2c1 (centres unmarked) [PQ, primaquine diphosphate]
Gi dissociation downstream of PbSR10 [11]: promoted Gi dissociation
EC50 [3]: 17.4 ± 4.77 nM
cAMP inhibition Emax [3, 19]: 1.153 ± 0.06 × 10^3
ECL1 movement relative to the PfSR10 N-terminus [1]: inward movement of ECL1 toward the PfSR10 N-terminus

N=C(N)NCCC[C@H](NC(=O)[C@H](Cc1ccccc1)NC(=O)[C@@H]1CCCN1C(=O)[C@H](CO)NC(=O)[C@H](Cc1ccccc1)NC(=O)CNC(=O)[C@@H]1CCCN1C(=O)[C@@H]1CCCN1C(=O)[C@@H](N)CCCNC(=N)N)C(=O)O [bradykinin] (H-RPPGFSPFR-OH)
Gq dissociation signal (in words) ([7]; PfSR10-overexpressing cells): remarkable reduction
Gi1 coupling with PfSR10 (in words) [2]: promoted Gi1 coupling to PfSR10
Fsk-induced cAMP level elevation (in words) [3]: significantly inhibited
ECL movements of PfSR10 by FlAsH-BRET sensors (kinin peptides) [1]: movement of ECL1 and ECL3 toward the N-terminus and separation of the ECL2 region and N-terminus of PfSR10

NC(N)=NCCC[C@H](NC(=O)[C@H](Cc1ccccc1)NC(=O)[C@@H]1CCCN1C(=O)[C@H](CO)NC(=O)[C@H](Cc1ccccc1)NC(=O)CNC(=O)[C@@H]1CCCN1C(=O)[C@@H]1CCCN1C(=O)[C@@H](N)CCCN=C(N)N)C(=O)O [bradykinin] (H-RPPGFSPFR-OH)
EC50 [7]: 0.53 ± 0.06 nM
EC50 [2]: 0.38 ± 0.11 nM
EC50 [3]: 1.82 ± 0.83 nM
EC50 [14]: 0.67 ± 0.29 nM
EC50 [15]: 0.15 ± 0.005 nM

N=C(N)NCCC[C@H](N)C(=O)N1CCC[C@H]1C(=O)N1CCC[C@H]1C(=O)NCC(=O)N[C@@H](Cc1ccccc1)C(=O)N[C@@H](CO)C(=O)N1CCC[C@H]1C(=O)N[C@@H](Cc1ccccc1)C(=O)O [des-Arg9-bradykinin]
Gi1 coupling with PfSR10 (in words) [2]: promoted Gi1 coupling to PfSR10
Fsk-induced cAMP level elevation (in words) [3]: significantly inhibited
ECL movements of PfSR10 by FlAsH-BRET sensors (kinin peptides) [1]: movement of ECL1 and ECL3 toward the N-terminus and separation of the ECL2 region and N-terminus of PfSR10
EC50 [16]: 0.29 ± 0.08 nM

RPPGFSPFR [bradykinin]
EC50 of Gi activity downstream of PcSR10, concentration-dependent [17]: 0.15 nM
EC50 of Gi activity downstream of PySR10, concentration-dependent [18]: 0.67 nM
